≈ marks a conversion by molar mass, not a printed value. Where “and” joins values, the source holds several entries; their conditions need not be identical. Equal entries are not always repeated. Where two headings read alike, the source gives them in different places. Marks after values point to notes of the source that are not given here.
Experiments:
[1] = test system: Enterococcus faecalis (ATCC29212); experiment: Microdilution MIC assay (CLSI-based), E. faecalis; type: cell-based; conditions: 20 hours incubation at 35-37° C., MHB; for MIC: Enterococcus faecalis, ATCC29212, 20 h, read-out: Minimum inhibitory concentration E. faecalis ATCC29212
How it was run: (§1)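 Broth microdilution per modified CLSI guidelines in Mueller Hinton broth, 200 μL, inoculum ca. 5×10^5 CFU/mL; compounds tested as salts, twofold dilutions from 0.2 mg/mL, in triplicate. MIC determined from OD at 620 nm after incubation.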

[2] = test system: CHO-K1 cells; experiment: WST1 cytotoxicity test; type: cell-based, Chinese hamster
How it was run: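 CHO-K1 cells pre-cultured 24 h, then exposed 24 h at 37 °C to increasing compound concentrations. Viability read as WST-1 formazan absorbance at 450 nm after 20 min; dose-response fitted by nonlinear regression.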

[3] = test system: Staphylococcus aureus (ATCC25923); experiment: Microdilution MIC assay (CLSI-based), S. aureus; type: cell-based; conditions: 20 hours incubation at 35-37° C., MHB; for MIC: Staphylococcus aureus, ATCC25923, 20 h, read-out: Minimum inhibitory concentration S. aureus ATCC25923
How it was run: as §1

[4] = test system: Escherichia coli (ATCC28922); experiment: Microdilution MIC assay (CLSI-based), E. coli; type: cell-based; conditions: 20 hours incubation at 35-37° C., MHB; for MIC: Escherichia coli, ATCC28922, 20 h, read-out: Minimum inhibitory concentration E. coli ATCC28922
How it was run: as §1

[5] = test system: Pseudomonas aeruginosa (ATCC27853); experiment: Microdilution MIC assay (CLSI-based), P. aeruginosa; type: cell-based; conditions: 20 hours incubation at 35-37° C., MHB; for MIC: Pseudomonas aeruginosa, ATCC27853, 20 h, read-out: Minimum inhibitory concentration P. aeruginosa ATCC27853
How it was run: as §1

[6] = test system: E. coli non-persister cells; experiment: Anti-persister activity test, non-persister cells; type: cell-based, Escherichia coli; conditions: for viability at 62.5 µM / viability at 125 µM: Escherichia coli, 4 h; for viability at 62.5 µM: read-out: Non-persister cell survival rate 96 h, concentration used 62.5 μM, 4 hours treatment; for viability at 125 µM: read-out: Non-persister cell survival rate 96 h, concentration used 125 μM, 4 hours treatment; for Non-persister cell survival rate 96 h: 4 hours treatment
Method: (§2) Anti-persister activity test: Escherichia coli (E. coli) persister cells were generated and isolated as described by MARQUES, C. N. H. et al. (Applied and Environmental Microbiology 2014, Vol. 80, No. 22, pp. 6976-6991). E. coli persister cells were compared to E. coli non-persister cells. 1 mL persister or non-persister bacteria culture was added in a 1.5 mL microtube with each of the compounds to be tested or ciprofloxacin as a […], and incubated at 37° C. with 160 rpm shaking for 4 hours. After 4 hours treatment with the compounds, the microtubes were centrifuged at 3,500g for 5 minutes and the pellets were resuspended in 1 mL of fresh drug free RM broth (10 g/L M9 salt, 2% casamino acids, 1 mM MgCl2, 1% glycerol). Resuspended bacteria were then plated over LB agar plates and incubated at 37° C. Bacterial colonies were enumerated after 24, 48 and 96 hours to estimate the survival rate.

[7] = test system: Escherichia coli (E. coli) persister cells; experiment: Anti-persister activity test, persister cells; type: cell-based; conditions: for anti-persister activity (in words): E. coli persister cells, Table 8 conditions; for viability at 62.5 µM / viability at 125 µM: Escherichia coli, 4 h; for viability at 62.5 µM: read-out: Persister cell survival rate 96 h, concentration used 62.5 μM, 4 hours treatment; for viability at 125 µM: read-out: Persister cell survival rate 96 h, concentration used 125 μM, 4 hours treatment; for Persister cell survival rate 96 h: 4 hours treatment
Method: as §2

[8] = Cricetulus griseus, CHO-K1, 24 h, WST1, 24 hours at 37° C., read-out: IC50 CHO
[9] = Cricetulus griseus, CHO-K1, WST1, as printed in Table 8, read-out: Toxicity IC50 CHO
[10] = WST1, 24 hours at 37° C., read-out: IC50 CHO
[11] = WST1, Table 8, read-out: Toxicity IC50 CHO

Row | Compound | MIC [1] | toxicity results (in words) [2] | IC50 [2, 8] | IC50 [2, 9] | MIC [3] | MIC [4] | MIC [5] | anti-persister activity (in words) [7] | Minimum inhibitory concentration E. faecalis ATCC29212 [1] | IC50 CHO ([2]; WST1, 24 hours at 37° C.) | Minimum inhibitory concentration E. coli ATCC28922 [4] | Minimum inhibitory concentration P. aeruginosa ATCC27853 [5] | viability at 125 µM [6] | viability at 125 µM [7] | also measured
1 | COC(=O)[C@H](NC(=O)CC[C@@H](C)[C@H]1CCC2C3CC[C@@H]4C[C@@H](NCCCNCCCCNCCCN)CC[C@]4(C)C3C[C@H](O)[C@@]21C)C(C)C (stereo partly drawn) [Compound S052, methyl ((4R)-4-((3S,5R,10S,12S,13R,17R)-3-((3-((4-((3-aminopropyl)amino)butyl)amino)propyl)amino)-12-hydroxy-10,13-dimethylhexadecahydro-1H-cyclopenta[a]phenanthren-17-yl)pentanoyl)-D-valinate] | 25 µM and 16 µg/mL | good toxicity results | 50 µM and 34 µg/mL | 50 µM | 3.12 µM and 2 µg/mL | 12.5 µM and 8 µg/mL | 12.5 µM and 8 µg/mL | both anti-persister and anti-bacterial activities | – | – | – | – | – | – | viability at 62.5 µM [6]: 0%; viability at 62.5 µM [7]: 0%
2 | COC(=O)[C@H](Cc1ccc(O)cc1)NC(=O)CC[C@@H](C)[C@H]1CCC2C3C(CC[C@@]21C)[C@@]1(C)CC[C@H](NCCCNCCCCNCCCN)C[C@H]1C[C@H]3O (stereo partly drawn) [Compound S039, methyl ((4R)-4-((3S,5S,7R,10S,13R,17R)-3-((3-((4-((3-aminopropyl)amino)butyl)amino)propyl)amino)-7-hydroxy-10,13-dimethylhexadecahydro-1H-cyclopenta[a]phenanthren-17-yl)pentanoyl)-L-tyrosinate] | 12.5 µM and 8 µg/mL | good toxicity results | 60 µM and 45.3 µg/mL | 60 µM | 6.25 µM and 4 µg/mL | 6.25 µM and 4 µg/mL | 6.25 µM and 4 µg/mL | very potent anti-persister activity | – | – | – | – | – | – | viability at 62.5 µM [6]: 2.7%; viability at 62.5 µM [7]: 0%
3 | COC(=O)[C@H](NC(=O)CC[C@@H](C)[C@H]1CCC2C3C(CC[C@@]21C)[C@@]1(C)CC[C@H](NCCCNCCCN)C[C@H]1C[C@H]3O)C(C)C (stereo partly drawn) [Compound S047, methyl ((4R)-4-((3S,5S,7R,10S,13R,17R)-3-((3-((3-aminopropyl)amino)propyl)amino)-7-hydroxy-10,13-dimethylhexadecahydro-1H-cyclopenta[a]phenanthren-17-yl)pentanoyl)-D-valinate] | – | – | – | – | 6.25 µM and 4 µg/mL | – | – | both anti-persister and anti-bacterial activities | 12.5* μM and 8* μg/mL | 57.61 µg/mL (≈ 93.1 µM) | 12.5* μM and 8* μg/mL | 12.5* μM and 8* μg/mL | 0% | 0% | IC50 [2, 10]: 93.1 µM; IC50 [2, 11]: 93.1 µM
4 | COC(=O)[C@H](Cc1ccccc1)NC(=O)CC[C@@H](C)[C@H]1CCC2C3C(CC[C@@]21C)[C@@]1(C)CC[C@H](NCCCNCCCCNCCCN)C[C@H]1C[C@H]3O (stereo partly drawn) [Compound S014, methyl ((4R)-4-((3S,5S,7R,10S,13R,17R)-3-((3-((4-((3-aminopropyl)amino)butyl)amino)propyl)amino)-7-hydroxy-10,13-dimethylhexadecahydro-1H-cyclopenta[a]phenanthren-17-yl)pentanoyl)-L-phenylalaninate] | 12.5 µM and 8 µg/mL | good toxicity results | 77.6 µM and 57.3 µg/mL | 77.6 µM | 3.12 µM and 2 µg/mL | 6.25 µM and 4 µg/mL | 25 µM and 16 µg/mL | both anti-persister and anti-bacterial activities | – | – | – | – | 0% | 0% | –
5 | COC(=O)[C@H](NC(=O)CC[C@@H](C)[C@H]1CCC2C3C(CC[C@@]21C)[C@@]1(C)CC[C@H](NCCCNCCCN)C[C@H]1C[C@H]3O)C(C)C (stereo partly drawn) [Compound S019, methyl ((4R)-4-((3S,5S,7R,10S,13R,17R)-3-((3-((3-aminopropyl)amino)propyl)amino)-7-hydroxy-10,13-dimethylhexadecahydro-1H-cyclopenta[a]phenanthren-17-yl)pentanoyl)-D-valinate] | – | – | – | 97.1 µM | – | – | – | very potent anti-persister activity | 25* μM and 16* μg/mL | 60.09 µg/mL (≈ 97.1 µM) | 12.5* μM and 8* μg/mL | 12.5* μM and 8* μg/mL | – | – | Minimum inhibitory concentration S. aureus ATCC25923 [3]: 6.25* μM and 4* μg/mL; Non-persister cell survival rate 96 h ([6]; concentration used 250 μM): 4.0%; Persister cell survival rate 96 h ([7]; concentration used 250 μM): 0.0%
6 | COC(=O)[C@H]1CCCN1C(=O)CC[C@@H](C)[C@H]1CCC2C3C(CC[C@@]21C)[C@@]1(C)CC[C@H](NCCCNCCNCCCN)C[C@H]1C[C@H]3O (stereo partly drawn) [Compound S046, methyl ((4R)-4-((3S,5S,7R,10S,13R,17R)-3-((3-((2-((3-aminopropyl)amino)ethyl)amino)propyl)amino)-7-hydroxy-10,13-dimethylhexadecahydro-1H-cyclopenta[a]phenanthren-17-yl)pentanoyl)-D-prolinate] | 6.25 µM and 4 µg/mL | – | 9.53 µM and 6.29 µg/mL | 9.53 µM | 12.5 µM and 8 µg/mL | 12.5 µM and 8 µg/mL | 12.5 µM and 8 µg/mL | very potent anti-persister activity | – | – | – | – | 0.3% | 0% | –
7 | COC(=O)[C@H](NC(=O)CC[C@@H](C)[C@H]1CCC2C3C(CC[C@@]21C)[C@@]1(C)CC[C@H](NCCCNCCCN)C[C@H]1C[C@H]3O)C(C)C (stereo partly drawn) [Compound S048, methyl ((4R)-4-((3S,5S,7R,10S,13R,17R)-3-((3-((3-aminopropyl)amino)propyl)amino)-7-hydroxy-10,13-dimethylhexadecahydro-1H-cyclopenta[a]phenanthren-17-yl)pentanoyl)-D-valinate] | – | – | – | – | – | – | – | both anti-persister and anti-bacterial activities | 25* μM and 16* μg/mL | 60.09 µg/mL (≈ 97.1 µM) | 6.25* μM and 4* μg/mL | 12.5* μM and 8* μg/mL | – | – | IC50 [2, 10]: 97.1 µM; IC50 [2, 11]: 97.1 µM; Minimum inhibitory concentration S. aureus ATCC25923 [3]: 6.25* μM and 4* μg/mL; Non-persister cell survival rate 96 h ([6]; concentration used 125 μM): 0.0%; Persister cell survival rate 96 h ([7]; concentration used 125 μM): 0.0%
8 | COC(=O)[C@H](Cc1ccc(O)cc1)NC(=O)CC[C@@H](C)[C@H]1CCC2C3C(CC[C@@]21C)[C@@]1(C)CC[C@H](NCCCNCCNCCCN)C[C@H]1C[C@H]3O (stereo partly drawn) [Compound S042, methyl ((4R)-4-((3S,5S,7R,10S,13R,17R)-3-((3-((2-((3-aminopropyl)amino)ethyl)amino)propyl)amino)-7-hydroxy-10,13-dimethylhexadecahydro-1H-cyclopenta[a]phenanthren-17-yl)pentanoyl)-L-tyrosinate] | 25 µM and 16 µg/mL | good toxicity results | 51.4 µM and 37.3 µg/mL | 51.4 µM | 6.25 µM and 4 µg/mL | 12.5 µM and 8 µg/mL | 25 µM and 16 µg/mL | not as good on persister cells | – | – | – | – | 0% | 0.1% | activity on non-persister cells (in words) ([6]; E. coli non-persister cells, Table 8 conditions): good activity on non-persister cells

From patent publication US20260250312A1, “ANTIBACTERIAL COMPOUNDS ELIMINATING DORMANT BACTERIAL CELLS” (UNIVERSITÉ D'AIX-MARSEILLE, priority 2022, published 2026)
